Source: patent publication US20020111314A1, “Novel stimulation of gene expression and protein synthesis of heat shock protein 72/73 (Hsp 70)” (The Trustees of Columbia University, priority 1995, published 2002)
Square brackets hold non-standard residues; d marks the D form. Peptide text beside a SMILES is read from it. Nle = CCCC[C@H](N)C(=O)O

What was measured:
Hsp70 [1] = test: Hsp70 induction in Chinese hamster ovary (CHO) cells; format: cell-based; conditions: data not shown
Hsp70 [2] = test: Hsp70 turnover (pulse-chase) in HepG2 cells; format: cell-based, human
Description: FIGS. 4A-4B: Effects of ALLN on Hsp70 turnover and synthesis rates in HepG2 cells. Confluent culture dishes were preincubated for 4 hours with serum-free MEM containing either 1.5% BSA alone (Control) or BSA plus 40 μg/ml of ALLN (ALLN). (A) The preincubated cells were radiolabeled with 3H-leucine (150 μCi/ml) in serum-free, leucine-free medium with/without ALLN for 20 min., washed 3 times with medium free of isotope and then chased in serum-free medium containing BSA with/without ALLN for up to 20 hours. At the indicated time points, cells were harvested and lysed. Samples were immediately stored in a −80° C. freezer. Immunoprecipitation of Hsp70 was performed as described in FIG. 1. […]
FIGS. 8A-8C: Effects of ALLN on Hsp70 synthesis and turnover rates in HepG2 cells. […] Immunoprecipitates were analyzed on SDS-PAGE and fluorography (A) and also aliquoted for scintillation counting (B). […]
Since ALLN is a cysteine protease inhibitor, the possibility that protection of Hsp70 from proteolytic degradation accounted for the sharp increase in Hsp70 induced by ALLN was tested (Rock, et al., 1994; Ward, et al., 1995; Hiwasa, et al., 1990; Inoue, et al., 1991; and Sakata, et al., 1993). To determine whether ALLN stabilizes Hsp70, the turnover rate of radiolabeled Hsp70 in the presence or absence of ALLN (40 μg/ml) was measured in a pulse-chase experiment. […]

[3] = system: cysteine proteases, calpain and cathepsin B; conditions: Rock, et al., 1994; cited from earlier work

CCCC[C@@H](C=O)NC(=O)[C@H](CC(C)C)NC(=O)[C@H](CC(C)C)NC(C)=O [ALLN, N-acetyl-leucyl-leucyl-norleucinal] (Ac-Leu-Leu-[Nle]-aldehyde)
cellular Hsp70 levels (Hsp70 [1]): increasing cellular Hsp70 levels | increase in the half-life of Hsp70 (Hsp70 [2]; ALLN 40 μg/ml vs without ALLN): 3-4 fold | half life of newly synthesized Hsp70 in the presence of ALLN (Hsp70 [2]; ALLN 40 μg/ml, pulse-chase): about 6 hours | activities against calpain and cathepsin B [3]: significant activities
